Reference: patent US5690957A, “Prostaglandin derivatives” (Ono Pharmaceutical Co., Ltd., priority 1995, dated 1997)

Columns and labels:
[1] = Blood flow increasing effect in anesthetized rats (laser-Doppler cutaneous blood flow, AUC); assay type: in vivo; details: i.v., rat
Experimental: (§1) The blood flow increasing effect and hypotensive effect of the compounds of the present invention were determined by the following experiment.
(§2) Male rats weighing 200-350 g were anesthetized with urethane (25% urethane, 6 ml/kg, s.c.). The carotid artery and jugular vein were cannulated with polyethylene tubes for measurement of blood pressure and for drug injection, respectively. Blood pressure was obtained with a disposable pressure transducer kit (Spectramed, Ltd) and recorded with a recticoder (model RJG-4128, Nihon kohden, Ltd). Blood flow was monitored as cutaneous blood flow of the dorsum pedis using an attachment-type laser-Doppler flowmeter (model ALF21, Advance, Ltd). Measurements were taken until the values recovered to the level observed before injection of drugs. Injection time was about 10 seconds. The hypotensive effect and blood flow increasing effect were calculated as the maximal hypotensive activity (mmHg) and the area under the curve (AUC) after injection of drugs, respectively.
(§3) The results were represented by the dose required to obtain an effective increase in blood flow (main effect), and by the hypotensive effect (side effect) at the same dose.
(§4) The compounds of the present invention were administered in the form of a liposome formulation (as prepared in Example 4 below). As a comparative compound, PGE1 1-decanoyloxyethyl ester (described in Example 10 of the specification of Japanese Patent Kokai No. 59-206349) was administered in the form of a lipid emulsion (prepared in Reference Example 8 in the present specification).
The effectiveness of increasing blood flow was determined by the following method. […] In the above-described experimental assessment system for the compounds of the present invention, the AUG for this PGE1 lipid emulsion (5 μg/kg, i.v.) was 771 on the blood flow increasing effect; thus this value was chosen as an effective value for increase in blood flow.

[2] = Hypotensive effect in anesthetized rats (carotid artery blood pressure); assay type: in vivo; details: rat; for Hypotensive effect, Maximum hypotension on dose (A): at dose (A) giving AUC = 771, i.v.; for Hypotensive effect, Maximum hypotension: i.v.
Experimental: as §1, §2, §3, §4

[3] = dose 1 μg/kg, Examples as liposome formulation, comparative compound as lipid emulsion
[4] = dose 3 μg/kg, Examples as liposome formulation, comparative compound as lipid emulsion
[5] = dose 10 μg/kg, Examples as liposome formulation, comparative compound as lipid emulsion
[6] = Examples as liposome formulation, comparative compound as lipid emulsion
[7] = dose 30 μg/kg, liposome formulation

SMILES | Blood flow increasing effect, Total AUC [1, 3] | Blood flow increasing effect, Total AUC [1, 4] | Blood flow increasing effect, Total AUC [1, 5] | Blood flow increasing effect, Dose (A) required to obtain AUC = 771 [1, 6] [µg/kg] | Hypotensive effect, Maximum hypotension on dose (A) [2, 6] [mmHG] | Hypotensive effect, Maximum hypotension [2, 3] [mmHg] | Hypotensive effect, Maximum hypotension [2, 4] [mmHg] | Hypotensive effect, Maximum hypotension [2, 5] [mmHg] | Blood flow increasing effect, Total AUC [1, 7] | Hypotensive effect, Maximum hypotension [2, 7] [mmHg]
CCCCCCCCCC(=O)OC(C)OC(=O)CCCCCC[C@H]1C(=O)C[C@@H](O)[C@@H]1/C=C/[C@@H](O)CCCCC (some centres unmarked) [Comparative compound, PGE1 1-decanoyloxyethyl ester, reference compound] | 92 | 222 | 498 | 16.70 | 30.2 | 1 | 9 | 18 | – | –
CCCCCCCCCCCC(=O)OCCOC(=O)CCCCCC[C@H]1C(=O)C[C@@H](O)[C@@H]1/C=C/[C@@H](O)CCCCC [Example 1, PGE1 (dodecanoyloxy)ethyl ester] | 175 | 1914 | 3528 | 1.47 | 4.3 | 3 | 7 | 13 | – | –
CCCCCCCCCCCCCCCCOCC(=O)OCCOC(=O)CCCCCC[C@H]1C(=O)C[C@@H](O)[C@@H]1/C=C/[C@@H](O)CCCCC [Example 2, PGE1 2-(hexadecyloxyacetoxy)ethyl ester] | – | 329 | 807 | 8.14 | 6.1 | – | 3 | 7 | 3248 | 20
CCCCCCCCCCCCOCC(=O)OCCOC(=O)CCCCCC[C@H]1C(=O)C[C@@H](O)[C@@H]1/C=C/[C@@H](O)CCCCC [Example 3, PGE1 2-(dodecyloxyacetoxy)ethyl ester] | 227 | 4028 | 5391 | 1.14 | 2.8 | 2 | 9 | 9 | – | –
